How the values were obtained:
[1] = tested on: α-secretase; assay: α-secretase cleavage product (sAPPα) in culture supernatant of COS7 cells transiently expressing mutated APP, Western blotting; type: cell-based, monkey; design: key to α-cleavage: ↓: indicates a reduced amount of secretase cleavage product; →: indicates an unchanged amount of each secretase cleavage product; ↑: indicates an increased amount of secretase cleavage product; 0: indicates no detection of each secretase cleavage product; conditions: for α-cleavage: amount of sAPPα versus wild-type APP, 48 hours after transfection; for amount of α-secretase cleavage product: in words, versus wild-type APP
Description: (§1) BE11-hAPP695 was used as a starting material which was produced by adding a BE11 epitope tag immediately after a signal peptide of the N-terminus of a human-type APP gene (FIG. 2) and incorporating it into a vector. With respect to the amino acid at the N-treminus of the α-secretase cleavage site of APP695 (lysine at position 16 of β-amyloid) or the amino acid at the C-terminus (leucine at position 17 of β-amyloid), tryptophan was introduced into position 16 and alanine, glutamic acid, lysine, proline, glutamine, and threonine were introduced into position 17 by the site-directed mutagenesis (QuickChange, Stratagene). A construct was produced in which these mutated APPs and wild-type APPs are respectively incorporated into a pCIneo mammalian expression vector (Promega), and the construct was then transfected to a COS7 cell by a liposome method (DOTAP, Boeringer Manheim), to achieve transient expression. Forty-eight hours after transfection, the cell and culture supernatant were collected, and the expressed proteins and the processing were analyzed by 8% SDS-PAGE/Western blotting. The expression of a cell membrane-associated full-length APP confirmed using the monoclonal antibody (Mab BE11) against BE11. The expression level was standardized, and then α-secretase cleavage products (sAPPα) and β-secretase cleavage products (sAPPβ) which were secreted in the culture supernatant (medium) were detected and quantified using a specific antibody against the respective products.

[2] = tested on: β-secretase; assay: β-secretase cleavage product (sAPPβ) in culture supernatant of COS7 cells transiently expressing mutated APP, Western blotting; type: cell-based, monkey; design: key to β-cleavage: ↓: indicates a reduced amount of secretase cleavage product; →: indicates an unchanged amount of each secretase cleavage product; ↑: indicates an increased amount of secretase cleavage product; 0: indicates no detection of each secretase cleavage product; conditions: for β-cleavage: amount of sAPPβ versus wild-type APP, 48 hours after transfection
Description: as §1

Row | Substance | α-cleavage [1] | amount of α-secretase cleavage product [1] | β-cleavage [2] | amount of β-secretase cleavage product ([2]; in words, versus wild-type APP)
1 | Ala (position 17): human APP695 modified protein, leucine at position 17 of β-amyloid replaced with alanine | ↓ | decreased | → | 
2 | Trp (position 16): human APP695 modified protein, lysine at position 16 of β-amyloid replaced with tryptophan | ↓↓ | sharply decreased | → | 
3 | Pro (position 17): human APP695 modified protein, leucine at position 17 of β-amyloid replaced with proline | 0 | No α-secretase cleavage product was detected | → | 
4 | Glu (position 17): human APP695 modified protein, leucine at position 17 of β-amyloid replaced with glutamic acid | 0 | No α-secretase cleavage product was detected | → | 
5 | Lys (position 17): human APP695 modified protein, leucine at position 17 of β-amyloid replaced with lysine | ↓↓ | decreased | ↑ | slightly increased

Reference: patent US20060160146A1, “Method of screening compound affecting amyloid beta production” (OTSUKA PHARMACEUTICAL CO., LTD., priority 2002, published 2006)
